Test results published in patent US20240261294A1, “METHOD FOR TREATING IDH INHIBITOR-RESISTANT SUBJECTS” (Eli Lilly and Company, priority 2021, published 2024).
Changes are numbered by the printed parent chain. Read-outs that look alike come from different tables or passages of the source.

Assays:
IDH2 R140Q_Q316E cis = molecular target: T1, IDH2 R140Q_Q316E cis (Homo sapiens, UniProt P48735, Q316E/R140Q); assay: Inhibition of 2-HG production in IDH2 mutant U-87 MG cells; type: cell-based
T1 construct: expressed in transfected cells; host or cells: U-87 MG
T1 sequence (P48735 40-452 R140Q/Q316E): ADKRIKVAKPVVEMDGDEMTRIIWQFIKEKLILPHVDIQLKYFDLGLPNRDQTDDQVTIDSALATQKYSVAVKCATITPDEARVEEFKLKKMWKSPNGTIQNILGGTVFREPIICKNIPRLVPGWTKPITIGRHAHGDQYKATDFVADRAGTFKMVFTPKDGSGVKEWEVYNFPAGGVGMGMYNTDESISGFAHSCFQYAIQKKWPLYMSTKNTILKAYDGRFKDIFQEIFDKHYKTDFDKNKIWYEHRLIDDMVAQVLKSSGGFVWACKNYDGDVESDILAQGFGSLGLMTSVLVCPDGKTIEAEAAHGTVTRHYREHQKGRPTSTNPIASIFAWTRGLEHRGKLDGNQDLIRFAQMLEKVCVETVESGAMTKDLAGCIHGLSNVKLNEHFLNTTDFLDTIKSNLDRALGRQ

IDH2 R172W_P167R cis = molecular target: T2, IDH2 R172W_P167R cis (Homo sapiens, UniProt P48735, P167R/R172W); assay: as above; type: cell-based; details: read-out: Relative IC50 (nM) Mean, inhibition of 2-HG production
T2 construct: expressed in transfected cells; host or cells: U-87 MG
T2 sequence (P48735 40-452 P167R/R172W): T1 sequence (P48735 40-452 R140Q/Q316E) with Q101R, P128R, R133W, E277Q

C=CC(=O)N1CCN([C@@H](CC2CC2)c2ccc([C@H](C)Nc3ncc4c(n3)N(CC)C(=O)OC4)cc2)CC1 [Compound A, 7-[[(1S)-1-[4-[(1S)-2-cyclopropyl-1-(4-prop-2-enoylpiperazin-1-yl)ethyl]phenyl]ethyl]amino]-1-ethyl-4H-pyrimido[4,5-d][1,3]oxazin-2-one]
IC50 (IDH2 R140Q_Q316E cis; 16 hours incubation, 50K cells/well, 100 μl media/well, read-out: Relative IC50 (nM) Mean, inhibition of 2-HG production): 16 nM | IC50 (IDH2 R140Q_Q316E cis; 72 hours incubation, 12.5K cells/well, 150 μl media/well, read-out: IC50, inhibition of 2-HG production): 22 nM | IC50 (IDH2 R172W_P167R cis; 16 hours incubation, 50K cells/well, 100 μl media/well): 1280 nM | IC50 (IDH2 R172W_P167R cis; 72 hours incubation, 12.5K cells/well): 535 nM
